Assay results from ChEMBL document CHEMBL1201862, “PubChem BioAssay data set” (2004).
Each block holds one compound with its values, some of them ahead of it. Activity calls are given as the source filed them.

What was measured:
[1] = inhibitors of Bluetongue virus cytopathic effect, confirmation, arbovirus, BSR cells (AID 1250); assay type: functional;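 note: protection from viral cytopathic effect measured as cell viability by ATP luminescence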
Bcl-2-related protein A1 [2] = target: T1, Bcl-2-related protein A1 (Mus musculus, UniProt Q07440); experiment: Bfl-1 inhibitors blocking BH3 peptide binding, confirmation, biochemical, TR-FRET, mouse Bfl-1 (AID 621);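 note: TR-FRET binding of GST-Bfl-1 to FITC-labelled Bid peptide via terbium antibody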
T1 sequence (Q07440 whole entry): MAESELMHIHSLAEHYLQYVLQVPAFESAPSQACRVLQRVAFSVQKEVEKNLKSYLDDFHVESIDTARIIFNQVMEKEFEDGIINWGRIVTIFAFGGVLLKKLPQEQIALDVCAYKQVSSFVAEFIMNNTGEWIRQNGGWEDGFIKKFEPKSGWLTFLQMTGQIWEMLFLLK

Bcl-2-related protein A1 [3] = target: T1, Bcl-2-related protein A1; experiment: Bfl-1 binding inhibitors, SAR follow-up, biochemical, fluorescence polarization (AID 1070)
[4] = target: Sphingosine 1-phosphate receptor 2 (Homo sapiens, UniProt O95136); experiment: Dose Response Cell Based Assay for Antagonists of the S1P2 Receptor. [Related pubchem assays: 856, 736 ]; assay type: functional
Sequence of Sphingosine 1-phosphate receptor 2 (O95136 whole entry): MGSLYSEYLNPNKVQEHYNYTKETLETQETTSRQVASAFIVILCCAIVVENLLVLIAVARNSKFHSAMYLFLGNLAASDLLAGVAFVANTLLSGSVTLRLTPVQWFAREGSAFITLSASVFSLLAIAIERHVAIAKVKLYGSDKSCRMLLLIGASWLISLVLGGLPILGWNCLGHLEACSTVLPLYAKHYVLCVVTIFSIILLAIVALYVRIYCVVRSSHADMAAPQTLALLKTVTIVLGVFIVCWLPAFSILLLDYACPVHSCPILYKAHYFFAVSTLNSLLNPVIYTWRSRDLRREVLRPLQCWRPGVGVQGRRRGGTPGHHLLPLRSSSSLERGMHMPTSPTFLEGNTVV

[5] = target: Epstein-Barr nuclear antigen 1 (Epstein-Barr virus (strain B95-8) (HHV-4) (Human herpesvirus 4), UniProt P03211); experiment: EBNA-1 inhibitors, dose response, biochemical, fluorescence polarization, 1536-well (AID 2381); set-up: species or system human gammaherpesvirus 4;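 note: fluorescence polarization of a Cy5 DNA probe bound by EBNA-1 protein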
Sequence of Epstein-Barr nuclear antigen 1 (P03211 whole entry): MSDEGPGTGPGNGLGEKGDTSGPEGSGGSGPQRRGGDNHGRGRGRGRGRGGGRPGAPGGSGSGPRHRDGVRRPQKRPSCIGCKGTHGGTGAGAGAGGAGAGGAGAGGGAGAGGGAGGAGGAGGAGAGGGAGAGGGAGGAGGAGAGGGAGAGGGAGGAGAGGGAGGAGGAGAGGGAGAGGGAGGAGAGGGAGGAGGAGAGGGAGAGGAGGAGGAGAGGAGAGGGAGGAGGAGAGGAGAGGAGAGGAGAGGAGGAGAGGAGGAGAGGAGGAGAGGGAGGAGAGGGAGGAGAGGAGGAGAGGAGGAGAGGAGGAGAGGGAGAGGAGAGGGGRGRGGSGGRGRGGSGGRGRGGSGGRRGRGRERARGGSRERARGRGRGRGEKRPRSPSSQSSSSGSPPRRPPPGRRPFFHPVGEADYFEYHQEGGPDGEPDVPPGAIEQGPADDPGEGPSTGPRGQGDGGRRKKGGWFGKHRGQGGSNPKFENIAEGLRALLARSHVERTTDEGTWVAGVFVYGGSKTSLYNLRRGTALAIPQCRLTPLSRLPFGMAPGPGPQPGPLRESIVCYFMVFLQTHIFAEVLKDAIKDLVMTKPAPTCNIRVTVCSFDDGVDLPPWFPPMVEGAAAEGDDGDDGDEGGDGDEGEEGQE

[6] = target: Lytic switch protein BZLF1 (Epstein-Barr virus (strain B95-8) (HHV-4) (Human herpesvirus 4), UniProt P03206); experiment: EBV ZTA inhibitors, dose response, counter-screen for EBNA-1 inhibitor project, biochemical, fluorescence polarization, Epstein-Barr virus, 1536-well (AID 2377); set-up: species or system human gammaherpesvirus 4;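 note: fluorescence polarization of Cy5-labelled ZRE DNA probe bound by purified Zta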
Sequence of Lytic switch protein BZLF1 (P03206 whole entry): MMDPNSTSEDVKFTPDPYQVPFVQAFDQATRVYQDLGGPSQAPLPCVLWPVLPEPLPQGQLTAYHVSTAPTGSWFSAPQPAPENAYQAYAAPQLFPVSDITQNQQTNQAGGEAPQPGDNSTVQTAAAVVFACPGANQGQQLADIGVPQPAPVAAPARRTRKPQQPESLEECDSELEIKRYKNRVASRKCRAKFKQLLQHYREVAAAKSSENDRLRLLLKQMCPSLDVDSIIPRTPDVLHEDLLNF

Leucine aminopeptidase = target: T2, Leucine aminopeptidase (Plasmodium falciparum 3D7, UniProt Q8IL11); experiment: P. falciparum M17LAP inhibitors, primary screen, biochemical, fluorogenic H-Leu-NHMec substrate, 1536-well (AID 1619); assay type: functional
T2 sequence (Q8IL11 whole entry): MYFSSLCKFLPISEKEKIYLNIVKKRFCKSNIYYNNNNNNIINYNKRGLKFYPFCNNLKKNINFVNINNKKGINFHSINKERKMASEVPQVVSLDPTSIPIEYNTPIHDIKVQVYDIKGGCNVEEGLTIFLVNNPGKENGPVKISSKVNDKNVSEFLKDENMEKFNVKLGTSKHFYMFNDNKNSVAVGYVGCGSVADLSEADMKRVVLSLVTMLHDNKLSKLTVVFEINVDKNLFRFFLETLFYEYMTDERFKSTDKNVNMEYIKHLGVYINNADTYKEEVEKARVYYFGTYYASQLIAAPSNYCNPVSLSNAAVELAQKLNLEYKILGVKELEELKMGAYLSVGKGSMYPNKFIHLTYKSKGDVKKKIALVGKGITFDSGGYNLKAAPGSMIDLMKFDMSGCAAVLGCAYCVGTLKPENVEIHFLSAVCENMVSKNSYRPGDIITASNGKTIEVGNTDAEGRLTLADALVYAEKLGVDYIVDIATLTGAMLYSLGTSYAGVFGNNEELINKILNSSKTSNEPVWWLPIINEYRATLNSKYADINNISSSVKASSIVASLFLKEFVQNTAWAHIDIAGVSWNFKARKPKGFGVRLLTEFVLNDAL

Aminopeptidase N = target: T3, Aminopeptidase N (Plasmodium falciparum FcB1/Columbia, UniProt O96935); experiment: P. falciparum M1AAP inhibitors, biochemical, fluorogenic H-Leu-NHMec substrate, 1536-well (AID 1445); set-up: species or system Plasmodium falciparum 3D7, 3D7
T3 sequence (O96935 whole entry): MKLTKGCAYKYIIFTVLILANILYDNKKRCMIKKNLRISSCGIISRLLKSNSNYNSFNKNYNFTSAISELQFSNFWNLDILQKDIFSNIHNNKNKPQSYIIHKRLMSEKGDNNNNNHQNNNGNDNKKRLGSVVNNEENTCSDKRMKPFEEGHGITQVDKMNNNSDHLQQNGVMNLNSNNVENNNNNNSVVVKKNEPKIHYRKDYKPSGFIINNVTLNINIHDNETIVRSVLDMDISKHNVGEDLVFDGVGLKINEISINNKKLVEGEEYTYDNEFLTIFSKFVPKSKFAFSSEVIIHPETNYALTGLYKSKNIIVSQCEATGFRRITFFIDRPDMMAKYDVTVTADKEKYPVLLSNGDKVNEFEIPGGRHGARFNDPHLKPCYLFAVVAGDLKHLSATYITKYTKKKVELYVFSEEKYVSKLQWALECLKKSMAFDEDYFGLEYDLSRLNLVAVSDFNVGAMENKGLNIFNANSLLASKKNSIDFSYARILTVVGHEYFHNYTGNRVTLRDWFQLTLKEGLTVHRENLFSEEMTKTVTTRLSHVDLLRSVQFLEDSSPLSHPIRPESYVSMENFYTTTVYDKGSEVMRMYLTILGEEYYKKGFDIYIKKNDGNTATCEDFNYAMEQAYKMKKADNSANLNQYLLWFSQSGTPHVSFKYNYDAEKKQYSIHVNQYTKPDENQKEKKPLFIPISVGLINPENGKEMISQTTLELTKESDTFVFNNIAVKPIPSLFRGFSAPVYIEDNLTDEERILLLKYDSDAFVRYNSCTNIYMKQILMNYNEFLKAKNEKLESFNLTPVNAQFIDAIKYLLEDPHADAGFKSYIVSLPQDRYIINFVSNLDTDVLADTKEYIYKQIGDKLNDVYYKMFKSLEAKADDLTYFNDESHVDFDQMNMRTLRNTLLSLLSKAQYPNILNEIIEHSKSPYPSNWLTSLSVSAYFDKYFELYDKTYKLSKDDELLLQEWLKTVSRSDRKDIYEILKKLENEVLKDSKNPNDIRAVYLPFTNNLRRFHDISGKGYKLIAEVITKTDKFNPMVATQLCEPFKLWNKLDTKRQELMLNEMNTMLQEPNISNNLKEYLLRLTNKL

Protein Tat = target: T4, Protein Tat (Human immunodeficiency virus type 1 group M subtype B (isolate HXB2)(HIV-1), UniProt P04608); assay type: functional;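 note: tat binding to TAR RNA read out by fluorescence polarization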
T4 sequence (P04608 whole entry): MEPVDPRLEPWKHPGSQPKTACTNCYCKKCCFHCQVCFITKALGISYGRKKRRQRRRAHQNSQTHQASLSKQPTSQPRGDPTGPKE

[7] = THP-1 cell cytotoxicity, dose response, cytotoxicity control for Vif-APOBEC3G degradation inhibitor project, THP-1 cells (AID 1117359); assay type: functional; details: Human immunodeficiency virus 1, THP-1
[8] = P. falciparum 3D7-ScDHODH growth inhibitors, dose response, SYBR Green, dry powder samples (AID 1159570); assay type: functional, cell-based;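 note: parasite growth measured after 72 hours of compound exposure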
[9] = HepG2 cell cytotoxicity, dose response, cytotoxicity control, plate reader, dry powder samples (AID 1159569); assay type: functional, cell-based;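 note: inhibitor potency with signal falling toward the positive control level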
[10] = P. falciparum Dd2 growth inhibitors, dose response, SYBR Green, cherry-picked samples (AID 1159567); assay type: functional, cell-based
[11] = P. falciparum Dd2 growth inhibitors, dose response, SYBR Green, dry powder samples (AID 1159566); assay type: functional, cell-based;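 note: potency for growth inhibition with lower SYBR green DNA signal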
[12] = HepG2 cell cytotoxicity, dose response, cytotoxicity control, cherry-picked samples (AID 1159577); assay type: functional, cell-based
[13] = P. falciparum ATP4 D1247Y mutant growth inhibitors, dose response, NITD609-resistant line, SYBR Green, dry powder (AID 1159571); assay type: functional, cell-based;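 note: parasites synchronized at ring stage by sorbitol before testing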
Cytochrome P450 2C19 = Cytochrome P450 2C19 (Homo sapiens, UniProt P33261); experiment: qHTS Assay for Inhibitors and Substrates of Cytochrome P450 2C19. [Related pubchem assays: 410 ]; assay type: ADME; details: read-out: Potency
Sequence of Cytochrome P450 2C19 (P33261 whole entry): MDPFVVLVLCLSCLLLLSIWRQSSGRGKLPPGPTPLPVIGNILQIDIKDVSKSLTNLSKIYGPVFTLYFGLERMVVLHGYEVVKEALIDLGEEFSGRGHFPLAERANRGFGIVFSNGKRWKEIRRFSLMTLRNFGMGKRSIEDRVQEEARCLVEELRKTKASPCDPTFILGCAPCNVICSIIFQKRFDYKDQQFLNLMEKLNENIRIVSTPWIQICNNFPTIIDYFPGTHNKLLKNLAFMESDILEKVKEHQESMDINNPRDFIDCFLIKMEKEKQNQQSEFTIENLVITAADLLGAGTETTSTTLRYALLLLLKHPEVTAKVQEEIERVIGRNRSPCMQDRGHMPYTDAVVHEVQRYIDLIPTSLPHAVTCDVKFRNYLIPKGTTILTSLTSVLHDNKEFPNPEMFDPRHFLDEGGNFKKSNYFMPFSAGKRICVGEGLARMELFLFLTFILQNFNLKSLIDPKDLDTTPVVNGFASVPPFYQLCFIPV

IC50 [1]: 21.9 µM (active)
Compound: Cc1nc2c(c3c1[nH]c1ccccc13)C(O)CC(C)(C)C2 (stereo not drawn)

IC50 (Bcl-2-related protein A1 [2]): > 100 µM (not active)
IC50 (Bcl-2-related protein A1 [3]): > 100 µM (not active)
Compound: Clc1ccc(-n2nnc(-c3cc4ccccc4nc3Cl)n2)cc1Cl

IC50 [4]: > 30 µM (not active)
Compound: NC(=O)c1sc2cc(C(F)(F)F)cnc2c1-c1cccs1

IC50 [5]: 9.07 µM (active)
IC50 [6]: > 111 µM (not active)
Compound: COc1ccc(Cn2cccc(NC(=O)Nc3cccc(C#N)c3)c2=O)cc1

Compound: CC(C)S(=O)(=O)C1=NSC2=NC(=O)/C(=C\c3ccc(-c4ccccc4)o3)C(=N)N21
IC50 (Leucine aminopeptidase): 12.6 µM (active)
IC50 (Aminopeptidase N): 45.6 µM (active)
IC50 [1]: 27.1 µM (active)

IC50 (Protein Tat): > 50 µM (active)
Compound: Cc1nc2cc(NN=C3C(=O)CCCC3=O)ccc2s1
CC50 [7]: > 40 µM (active)

Compound: COc1cccc(-c2ccc3c(c2)[C@@H]2[C@@H](CCN2C(=O)C2CCCC2)[C@@H](CO)N3)c1
AC50 [8]: 2.57 µM (active)
AC50 [9]: 32.9 µM (active)
AC50 [10]: 2.25 µM (active)
AC50 [11]: 2.12 µM (active)
AC50 [12]: > 39 µM (inactive)
AC50 [13]: 1.65 µM (active)

AC50 (Cytochrome P450 2C19): 7.94 µM (inconclusive)
Compound: CC1CCC2C(=O)N3C(CCC(C)[C@@H]3c3cccc(N4CCOCC4)c3)C(=O)N2C1c1cccc(Br)c1 (stereo partly drawn)
